Molecules are shown by their SMILES. Counter-ions that a name gives are not always drawn.

In this experiment the test system is human JAK1. In words: In vitro JAK kinase assay (HTRF, phosphorylation of biotinylated peptide), JAK1. The format is biochemical. As to conditions: ratio of JAK2 IC50 to JAK1 IC50, 1 mM ATP. The method, then:
Compounds herein were tested for inhibitory activity of JAK targets according to the following in vitro assay described in Park et al., Analytical Biochemistry 1999, 269, 94-104. The catalytic domains of human JAK1 (a.a. 837-1142), JAK2 (a.a. 828-1132) and JAK3 (a.a. 781-1124) were expressed using baculovirus in insect cells and purified. The catalytic activity of JAK1, JAK2 or JAK3 was assayed by measuring the phosphorylation of a biotinylated peptide. The phosphorylated peptide was detected by homogenous time resolved fluorescence (HTRF). IC50s of compounds were measured for each kinase in the 40 μL reactions that contain the enzyme, ATP and 500 nM peptide in 50 mM Tris (pH 7.8) buffer with 100 mM NaCl, 5 mM DTT, and 0.1 mg/mL (0.01%) BSA. For the 1 mM IC50 measurements, ATP concentration in the reactions was 1 mM. Reactions were carried out at room temperature for 1 hour and then stopped with 20 μL 45 mM EDTA, 300 nM SA-APC, 6 nM Eu-Py20 in assay buffer (Perkin Elmer, Boston, Mass.). Binding to the Europium labeled antibody took place for 40 minutes and HTRF signal was measured on a PHERA star plate reader (BMG, Cary, N.C.). The Example compounds were each tested in the Example A assay (see Table 1 for data for the compounds of the examples as tested by the assay of Example A at 1 mM ATP).
(TR-FRET usually uses a lanthanide donor and a delayed reading to cut background.)
As for `Cc1nc2cnc3ccsc3c2n1[C@@H]1CC[C@@H](CC#N)[C@@H](O)C1` (mixture of isomers) [Example 34, Mixture of [(1R, 2R, 4S)-2-hydroxy-4-(2-methyl-1H-imidazo[4,5-d]thieno[3,2-b]pyridin-1-yl)cyclohexyl]acetonitrile trifluoroacetate and [(1S, 2S, 4R)-2-hydroxy-4-(2-methyl-1H-imidazo[4,5-d]thieno[3,2-b]pyridin-1-yl)cyclohexyl]acetonitrile trifluoroacetate], the JAK2/JAK1 is on record as over 10.
Next, `CCc1nc2cnc3ccsc3c2n1[C@@H]1CC[C@@H](CC#N)[C@@H](O)C1` (mixture of isomers) [Example 35]: over 10; `C[C@@H](O)c1nc2cnc3ccsc3c2n1C1CCC(O)(CC#N)CC1` (single isomer, unassigned) [24 (first peak)]: over 10.
Turning to `C[C@@H](O)c1nc2cnc3ccsc3c2n1C1CCC(O)(CC#N)CC1` (single isomer, unassigned) [24 (second peak)], the JAK2/JAK1 is on record as over 10.
Take `C[C@@H](O)c1nc2cnc3ccsc3c2n1C1CCC(NCCC#N)CC1` (single isomer, unassigned) [30 (first peak)]: the JAK2/JAK1 is given as over 2.
Next, `C[C@@H](O)c1nc2cnc3ccsc3c2n1C1CCC(NCCC#N)CC1` (single isomer, unassigned) [30 (second peak)]: over 10.
Next, `N#CCC1CCC(CO)(n2cnc3cnc4ccsc4c32)CC1` (single isomer, unassigned) [72 (second peak), [4-(Hydroxymethyl)-4-(1H-imidazo[4,5-d]thieno[3,2-b]pyridin-1-yl)cyclohexyl]acetonitrile]: over 5.
As to `C[C@@H](O)c1nc2cnc3ccsc3c2n1C1CCNCC1F` (stereo partly drawn) [9 (2nd peak), (1R)-1-[1-(3-Fluoropiperidin-4-yl)-1H-imidazo[4,5-d]thieno[3,2-b]pyridin-2-yl]ethanol], the JAK2/JAK1 is on record as over 10.
To `C[C@@H](O)c1nc2cnc3ccsc3c2n1[C@H]1CCCOC1` [Example 1, (1R)-1-{1-[(3S)-Tetrahydro-2H-pyran-3-yl]-1H-imidazo[4,5-d]thieno[3,2-b]pyridin-2-yl}ethanol] belongs over 3; to `C[C@@H](O)c1nc2cnc3ccsc3c2n1[C@H]1CC[C@H](CC#N)CC1` [Example 2, (trans-4-{2-[(1R)-1-Hydroxyethyl]-1H-imidazo[4,5-d]thieno[3,2-b]pyridin-1-yl}cyclohexyl)acetonitrile], over 10; to `C[C@@H](O)c1nc2cnc3ccsc3c2n1[C@H]1CC[C@H](O)CC1` [Example 3, trans-4-{2-[(1R)-1-Hydroxyethyl]-1H-imidazo[4,5-d]thieno[3,2-b]pyridin-1-yl}cyclohexanol], over 10.
Next, `C[C@@H](O)c1nc2cnc3ccsc3c2n1[C@H]1CC[C@H](NCC(F)(F)F)CC1` [Example 4, (1R)-1-(1-{trans-4-[(2,2,2-Trifluoroethyl)amino]cyclohexyl}-1H-imidazo[4,5-d]thieno[3,2-b]pyridin-2-yl)ethanol]: over 10; `C[C@@H](O)c1nc2cnc3ccsc3c2n1[C@H]1CC[C@H](CCS(C)(=O)=O)CC1` [Example 5, (1R)-1-(1-{trans-4-[2-(Methylsulfonyl)ethyl]cyclohexyl}-1H-imidazo[4,5-d]thieno[3,2-b]pyridin-2-yl)ethanol]: over 10.
Regarding `C[C@@H](O)c1nc2cnc3ccsc3c2n1[C@H]1CC[C@@H](n2cncn2)CC1` [Example 6, (1R)-1-{1-[cis-4-(1H-1,2,4-Triazol-1-yl)cyclohexyl]-1H-imidazo[4,5-d]thieno[3,2-b]pyridin-2-yl}ethanol], the JAK2/JAK1 is on record as over 6.
To `C[C@@H](O)c1nc2cnc3ccsc3c2n1[C@H]1CC[C@@H](C#N)CC1` [Example 7, cis-4-{2-[(1R)-1-Hydroxyethyl]-1H-imidazo[4,5-d]thieno[3,2-b]pyridin-1-yl}cyclohexanecarbonitrile] belongs over 10.
As to `C[C@@H](O)c1nc2cnc3ccsc3c2n1[C@H]1CC[C@H](CCC#N)CC1` [Example 8, 3-(trans-4-{2-[(1R)-1-Hydroxyethyl]-1H-imidazo[4,5-d]thieno[3,2-b]pyridin-1-yl}cyclohexyl)propanenitrile], the JAK2/JAK1 is listed as over 10.
Take `C[C@@H](O)c1nc2cnc3ccsc3c2n1[C@H]1CC[C@H](CC#N)CC1.Cl` [Example 10, (trans-4-{2-[(1R)-1-Hydroxyethyl]-1H-imidazo[4,5-d]thieno[3,2-b]pyridin-1-yl}cyclohexyl)acetonitrile HCl salt]: the JAK2/JAK1 is given as over 10.
To `C[C@@H](O)c1nc2cnc3ccsc3c2n1[C@H]1CC[C@H](CO)CC1` [Example 11, (1R)-1-{1-[trans-4-(Hydroxymethyl)cyclohexyl]-1H-imidazo[4,5-d]thieno[3,2-b]pyridin-2-yl}ethanol] belongs over 10; to `C[C@@H](O)c1nc2cnc3ccsc3c2n1[C@H]1CC[C@H](CF)CC1` [Example 12, (1R)-1-{1-[trans-4-(Fluoromethyl)cyclohexyl]-1H-imidazo[4,5-d]thieno[3,2-b]pyridin-2-yl}ethanol], over 10.
Next, `C[C@@H](O)c1nc2cnc3ccsc3c2n1C1CCCCC1` [Example 13, (1R)-1-(1-Cyclohexyl-1H-imidazo[4,5-d]thieno[3,2-b]pyridin-2-yl)ethanol]: over 10.
To `CNS(=O)(=O)C[C@H]1CC[C@H](n2c([C@@H](C)O)nc3cnc4ccsc4c32)CC1` [Example 14, 1-(trans-4-{2-[(1R)-1-hydroxyethyl]-1H-imidazo[4,5-d]thieno[3,2-b]pyridin-1-yl}cyclohexyl)-N-methylmethanesulfonamide] belongs over 5.
Regarding `C[C@@H](O)c1nc2cnc3ccsc3c2n1C1CCN(CC(F)(F)F)CC1` [Example 15, (1R)-1-{1-[1-(2,2,2-Trifluoroethyl)piperidin-4-yl]-1H-imidazo[4,5-d]thieno[3,2-b]pyridin-2-yl}ethanol], the JAK2/JAK1 is over 9.
Next, `C[C@@H](O)c1nc2cnc3ccsc3c2n1C1CCN(CCC#N)CC1` [Example 16, 3-(4-{2-[(1R)-1-Hydroxyethyl]-1H-imidazo[4,5-d]thieno[3,2-b]pyridin-1-yl}piperidin-1-yl)propanenitrile]: over 10.
For `N#CC[C@H]1CC[C@H](n2c(CO)nc3cnc4ccsc4c32)CC1` [Example 17, {trans-4-[2-(Hydroxymethyl)-1H-imidazo[4,5-d]thieno[3,2-b]pyridin-1-yl]cyclohexyl}acetonitrile], the JAK2/JAK1 is given as over 10.
As for `CS(=O)(=O)NCc1nc2cnc3ccsc3c2n1[C@H]1CC[C@H](CC#N)CC1` [Example 18, N-({1-[trans-4-(Cyanomethyl)cyclohexyl]-1H-imidazo[4,5-d]thieno[3,2-b]pyridin-2-yl}methyl)methanesulfonamide], the JAK2/JAK1 was over 10.
Next, `C[C@@H](O)c1nc2cnc3ccsc3c2n1[C@H]1CCC(CO)OC1` (stereo partly drawn) [Example 19, (1R)-1-{1-[(3S)-6-(Hydroxymethyl)tetrahydro-2H-pyran-3-yl]-1H-imidazo[4,5-d]thieno[3,2-b]pyridin-2-yl}ethanol]: over 10.

These data come from patent publication US10370387B2, “Tricyclic fused thiophene derivatives as JAK inhibitors” (Incyte Corporation, priority 2012, dated 2019).
